Measurements from patent publication US20220387345A1, “ANTI-CANCER COMPOUNDS ACTING AS NON-PGP SUBSTRATE” (ASCENTAWITS PHARMACEUTICALS, LTD., priority 2019, published 2022).
Where two headings read alike, the source gives them in different places.

Columns and labels:
[1] = test system: H460; assay: In vitro proliferation of NSCLC human tumor line H460, without or with specific AKR1C3 inhibitor; assay type: cell-based; conditions: H460 cells
Experimental: The cytotoxicity analysis of the human tumor cell lines in vitro was used.
IC50 (half maximal inhibitory concentration) values were in nanomoles and were obtained by the following. Cells were exposed in the compounds with different concentration for 2 hours. The compounds were washed off, and fresh medium was added into plates. A growth rate and a cell-survival rate were obtained by cell staining and compared with a control group treated with the medium only.
The compound was dissolved in 100% DMSO at 200 times of the desired final test concentration. When the drug was added, the compound was further diluted at 4 times of the desired final test concentration by the complete medium. 50 μL aliquots of the compound with specific concentration were added to the microwells contained 150 μL of medium, and then the final drug concentration was obtained. […] After the incubation was finished, the Alamar Blue was used to analyze and quantify the alive cells.
Before 2 h of the compound was prepared, the compound with the inhibitor was added to the cell culture. The inhibitor was […]

[2] = target: P-glycoprotein (P-GP) (Homo sapiens, UniProt P08183); assay: Evaluation as P-Gp substrate: penetration test in MDCKII-MDR1 cells with Verapamil as inhibitor; conditions: dog, MDCK-MDR1
Experimental: The preparation of the […] for the penetration test: • (1) MDCKII-MDR1 cells were cultured in the cell culture bottle. The conditions of the incubator were 37° C., 5% of CO2, and 95% of the relative humidity. When the cell growth confluence was up to 70-90%, the cells were inoculated to the transwell. • (2) Before the cell inoculation, 50 μL of the culture medium was respectively added to every well of the upper compartment of the transwell, and […] of the culture medium was added to the lower compartment. The transwell was incubated in the incubator under 37° C. and 5% CO2. […] The cell suspension was transferred to the upper compartment of the 96-well transwell, wherein each upper compartment contains 50 μL of the cell suspension. The final inoculum density was 5.45×10^5 cells/cm^2. • (5) The culture medium was replaced after inoculating for 48 h. After culturing for 4-8 days, the medium was changed every other day. • (6) The process of replacing the culture medium was as the follow. The upper compartment and the lower compartment were separated. The medium in the lower compartment was discarded, and then the medium in the upper compartment was discarded. Finally, 75 μL of fresh medium was added to each upper compartment and […] of fresh medium was added to the lower compartment.
Evaluation of the Cell Monolayer Integrity • (1) The MDCKII-MER1 cells should be totally confluent and complete the differentiation after culturing for 4-8 days. The MDCKII-MER1 cells can be used for the penetration test at this time. • (2) Millipore was used to measure the resistance of the cell monolayer, and the resistance of every well was recorded. • (3) After the measuring, the transwell was put back to the incubator. • (4) The calculation of the resistance: measured resistance (ohms)×area of the membrane=TEER value (ohm-cm^2). If TERR value was <42 ohm-cm^2, the well would not be used to the penetration test.
Penetration Test of the Drug • (1) The transwell of the MDCKII-MER1 cells was taken out from the incubator. The cell monolayer was rinsed two times by the buffer solution and incubated at 37° C. for 30 min. • (2) The transport rate of the compound from the top to the bottom was tested. […] 200 μL of the acetonitrile containing the internal standard (100 nM Alprazolam, 200 nM Labetalol, 200 nM caffeine and 2 μM Ketoprofen) was added to each sample tube. After the sample tubes were vortexed for 10 min, the sample tubes were centrifuged at 3220 g for 30 min. 100 μL of the supernatant was taken to be diluted with the same volume of the water, and the LC-MS/MS analysis was executed. Each sample was adopted to the three parallel incubation. • (8) After the cell monolayer was incubated for 2 h, the integrity of the cell monolayer was evaluated by the migration assay using the fluorescence yellow, the fluorescence yellow storage solution was diluted by the buffer solution, and the final concentration was 100 μM/L. 100 μL of the fluorescence yellow solution was added to each well of the upper compartment, and 300 μL of the buffer was added to each well of the lower compartment. After the transwell was incubated at 37° C. for 30 min, 80 µL of the solution from each well of the upper compartment and the lower compartment was respectively transferred to a new 96-well plate. ELISA (Enzyme-linked Immunosorbent Assay) reader was used to perform the fluorimetry with the excitation wavelength of 480 nm and the emission wavelength of 530 nm.
The peak area was calculated by the result of the ion chromatography. The permeability coefficient (Papp, unit: cm/s×10^−6) of the compound was calculated by the formula: […]

[3] = in the presence of specific AKR1C3 inhibitor (TH3021, 3 μmol concentration), read-out: Inhibitory effect of the proliferation of the cancer cells IC50 of +TH3021
[4] = Homo sapiens, NCI-H460, 2 h exposure, washed, further 70 h, Alamar Blue, read-out: Inhibitory effect of the proliferation of the cancer cells IC50

P-glycoprotein (P-GP), sequence (P08183 whole entry): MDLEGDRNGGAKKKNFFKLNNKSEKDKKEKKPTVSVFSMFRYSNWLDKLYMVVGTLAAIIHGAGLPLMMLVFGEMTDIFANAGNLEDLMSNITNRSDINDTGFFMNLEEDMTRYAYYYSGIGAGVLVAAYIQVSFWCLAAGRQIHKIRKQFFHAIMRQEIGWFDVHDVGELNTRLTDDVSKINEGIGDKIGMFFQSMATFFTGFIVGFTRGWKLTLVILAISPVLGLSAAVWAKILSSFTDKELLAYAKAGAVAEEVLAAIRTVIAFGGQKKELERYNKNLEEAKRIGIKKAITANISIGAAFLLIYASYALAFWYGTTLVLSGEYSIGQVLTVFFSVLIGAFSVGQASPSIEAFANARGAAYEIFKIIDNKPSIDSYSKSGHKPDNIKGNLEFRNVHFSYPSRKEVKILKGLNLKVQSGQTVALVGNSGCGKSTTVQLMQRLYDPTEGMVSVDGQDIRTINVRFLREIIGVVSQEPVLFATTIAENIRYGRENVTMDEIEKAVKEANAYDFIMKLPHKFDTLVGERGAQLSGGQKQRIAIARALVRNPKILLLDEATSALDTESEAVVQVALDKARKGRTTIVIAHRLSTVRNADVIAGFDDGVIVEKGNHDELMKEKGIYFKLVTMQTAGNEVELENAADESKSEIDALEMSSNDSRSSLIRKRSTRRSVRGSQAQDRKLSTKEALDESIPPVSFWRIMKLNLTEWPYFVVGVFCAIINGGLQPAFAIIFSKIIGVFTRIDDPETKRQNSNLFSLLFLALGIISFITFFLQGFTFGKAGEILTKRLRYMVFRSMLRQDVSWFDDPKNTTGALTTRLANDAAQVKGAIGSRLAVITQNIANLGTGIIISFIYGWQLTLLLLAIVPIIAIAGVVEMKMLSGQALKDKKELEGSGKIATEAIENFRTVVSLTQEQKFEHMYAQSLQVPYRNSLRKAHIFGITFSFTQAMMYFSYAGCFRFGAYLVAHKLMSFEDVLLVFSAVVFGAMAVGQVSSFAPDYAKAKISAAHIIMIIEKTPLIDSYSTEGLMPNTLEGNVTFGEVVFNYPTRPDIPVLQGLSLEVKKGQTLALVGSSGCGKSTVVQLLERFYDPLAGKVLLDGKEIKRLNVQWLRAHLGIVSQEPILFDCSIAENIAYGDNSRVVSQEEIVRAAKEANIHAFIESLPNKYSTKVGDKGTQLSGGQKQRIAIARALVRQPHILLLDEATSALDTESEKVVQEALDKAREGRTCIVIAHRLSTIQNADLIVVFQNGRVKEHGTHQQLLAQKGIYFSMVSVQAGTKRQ

| SMILES | IC50 [1, 3] [nM] | IC50 [1, 4] [nM] | efflux ratio at 2 h [2] | IC50 ([1]; 2 h exposure, washed, further 70 h, Alamar Blue, read-out: Inhibitory effect of the proliferation of the cancer cells IC50) [nM] |
| --- | --- | --- | --- | --- |
| O=[N+]([O-])c1ccc(COP(=O)(N2CC2)N2CC2)cc1Oc1ccc(-c2ccc(F)cc2)c(F)c1 [Compound 1] | 40 | 0.87 | 1 | – |
| O=[N+]([O-])c1ccc(COP(=O)(N2CC2)N2CC2)cc1Oc1ccc(-c2ccc(F)cc2)cc1 [Compound 2] | 105 | 1.89 | 1.53 | – |
| O=[N+]([O-])c1cc(F)c(COP(=O)(N2CC2)N2CC2)cc1Oc1ccc(-c2ccc(F)cc2)cc1 [Compound 3] | 47.8 | 1.84 | 1.2 | – |
| O=[N+]([O-])c1ccc(COP(=O)(N2CC2)N2CC2)cc1Oc1ccc(-c2ccc(F)cc2F)c(F)c1 [Compound 4] | 16.3 | 0.67 | 0.87 | – |
| Cc1cc(F)ccc1-c1ccc(Oc2cc(COP(=O)(N3CC3)N3CC3)ccc2[N+](=O)[O-])cc1F [Compound 5] | 5.04 | 0.59 | 1.69 | – |
| O=[N+]([O-])c1ccc(COP(=O)(N2CC2)N2CC2)cc1Oc1ccc(C(F)(F)F)nc1 [Compound 6] | 38.2 | 0.46 | – | – |
| O=[N+]([O-])c1ccc(COP(=O)(N2CC2)N2CC2)cc1Oc1ccc(-c2ccc(F)cc2)nc1 [Compound 7] | 19.7 | 0.71 | 1.54 | – |
| O=[N+]([O-])c1ccc(COP(=O)(N2CC2)N2CC2)cc1Oc1ccc(-c2ccc(F)cc2F)nc1 [Compound 8] | 26.8 | < 1.5 | – | – |
| O=[N+]([O-])c1ccc(COP(=O)(N2CC2)N2CC2)cc1Oc1ccc(Cl)nc1 [Compound 9] | 56.1 | < 1.5 | – | – |
| O=[N+]([O-])c1ccc(COP(=O)(N2CC2)N2CC2)cc1Oc1ccc(-c2ccc(F)cn2)cc1 [Compound 10] | 29.6 | 1.15 | 1.43 | – |
| O=[N+]([O-])c1ccc(COP(=O)(N2CC2)N2CC2)cc1Oc1ccc(-c2ccc(F)cn2)c(F)c1 [Compound 11] | 92.2 | 0.211 | – | – |
| O=[N+]([O-])c1ccc(COP(=O)(N2CC2)N2CC2)cc1Oc1ccc(-c2ccc(F)cc2F)nc1 [Compound 12] | 11.4 | – | – | < 1.5 |
| O=[N+]([O-])c1ccc(C(OP(=O)(N2CC2)N2CC2)C(F)(F)F)cc1Oc1cccc(-c2ccc(F)cc2)c1 (stereo not shown) [Compound 13] | 1890 | 30 | – | – |
| O=[N+]([O-])c1ccc(C(OP(=O)(N2CC2)N2CC2)C(F)(F)F)cc1Oc1ccc(-c2ccc(F)cc2F)cc1 (stereo not shown) [Compound 14] | > 1000 | 11.4 | 1.26 | – |
| O=[N+]([O-])c1ccc(C(OP(=O)(N2CC2)N2CC2)C(F)(F)F)cc1Oc1ccc(-c2ccc(F)cc2)c(F)c1 (stereo not shown) [Compound 15] | – | 6.78 | 1.36 | – |
| O=[N+]([O-])c1ccc(C(OP(=O)(N2CC2)N2CC2)C(F)(F)F)cc1Oc1ccc(-c2ccc(F)cc2F)c(F)c1 (stereo not shown) [Compound 16] | > 500 | 7.26 | 1.96 | – |
| O=[N+]([O-])c1ccc(C(OP(=O)(N2CC2)N2CC2)C(F)(F)F)cc1Oc1ccc(-c2ccc(F)cc2)nc1 (stereo not shown) [Compound 17] | > 10000 | 35.5 | – | – |
| O=[N+]([O-])c1ccc(C(OP(=O)(N2CC2)N2CC2)C(F)(F)F)cc1Oc1ccc(-c2ccc(C(F)(F)F)cc2)nc1 (stereo not shown) [Compound 18] | > 10000 | 313 | – | – |
| O=[N+]([O-])c1ccc(C(OP(=O)(N2CC2)N2CC2)C(F)(F)F)cc1Oc1ccc(-c2ccc(F)cn2)cc1 (stereo not shown) [Compound 19] | > 10000 | 46.8 | – | – |
| Cc1ccc(NC(=O)c2ccc(CN3CCN(C)CC3)cc2)cc1Nc1nccc(-c2cccnc2)n1 [Imatinib, reference compound] | – | – | 18.1 | – |
| COc1cc2nc(N3CCN(C(=O)c4ccco4)CC3)nc(N)c2cc1OC [Prazosin, reference compound] | – | – | 2.87 | – |
